Test results published in PubChem BioAssay (NCI).
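The concentration for 50% growth inhibition is given as GI50. TGI denotes the concentration required for complete inhibition of growth.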

Assays:
Assay in all cases: NCI tumour cell line growth inhibition, 384-well format
[1] = tested on: MDA-MB-231 breast
[2] = tested on: OVCAR-5 ovarian
[3] = tested on: HCC-2998 colon
[4] = tested on: SR leukemia
[5] = tested on: KM12 colon
[6] = tested on: LOX IMVI melanoma
[7] = tested on: SN12C renal
[8] = tested on: A498 renal
[9] = tested on: SNB-75 CNS
[10] = tested on: SK-MEL-5 melanoma
[11] = tested on: UACC-257 melanoma
[12] = tested on: MOLT-4 leukemia
[13] = tested on: PC-3 prostate
[14] = tested on: SF-268 CNS
[15] = tested on: MDA-MB-435 melanoma
[16] = tested on: SK-MEL-28 melanoma
[17] = tested on: HOP-62 NSCLC
[18] = tested on: HS 578T breast
[19] = tested on: NCI-H23 lung
[20] = tested on: NCI-H522 lung
[21] = tested on: NCI-H322M lung
[22] = tested on: HT29 colon
[23] = tested on: HL-60(TB) leukemia
[24] = tested on: OVCAR-3 ovarian
[25] = tested on: SK-OV-3 ovarian
[26] = tested on: NCI/ADR-RES ovarian
[27] = tested on: RXF 393 renal
[28] = tested on: MDA-MB-468 breast
[29] = tested on: UACC-62 melanoma
[30] = tested on: DU-145 prostate
[31] = tested on: SNB-19 CNS
[32] = tested on: M14 melanoma
[33] = tested on: ACHN renal
[34] = tested on: NCI-H460 NSCLC
[35] = tested on: MCF7 breast
[36] = tested on: COLO 205 colon
[37] = tested on: U251 glioblastoma
[38] = tested on: BT-549 breast
[39] = tested on: TK-10 renal
[40] = tested on: OVCAR-4 ovarian
[41] = tested on: A549 NSCLC
[42] = tested on: CAKI-1 renal
[43] = tested on: IGROV1 ovarian
[44] = tested on: SF-539 CNS
[45] = tested on: T-47D breast
[46] = tested on: EKVX NSCLC
[47] = tested on: NCI-H226 lung
[48] = tested on: HOP-92 NSCLC
[49] = tested on: MALME-3M melanoma
[50] = tested on: RPMI-8226 leukemia
[51] = tested on: HCT-15 colon
[52] = tested on: SF-295 CNS
[53] = tested on: OVCAR-8 ovarian
[54] = tested on: HCT-116 colon

**Q.** What does the source list for `NC(=O)c1cnc(N[C@@H]2CCCC[C@@H]2N)nc1Nc1cccc(-n2nccn2)c1`?
**A.** GI50 [1]: 1150 nM; TGI [1]: 3770 nM; GI50 [2]: 769 nM; TGI [2]: 2340 nM; GI50 [3]: 415 nM; TGI [3]: 1850 nM; GI50 [4]: 183 nM; TGI [4]: 1470 nM; GI50 [5]: 410 nM; TGI [5]: 1690 nM; GI50 [6]: 372 nM; TGI [6]: 1450 nM; GI50 [7]: 178 nM; TGI [7]: 1630 nM; GI50 [8]: 1040 nM; TGI [8]: 2260 nM; GI50 [9]: 1410 nM; TGI [9]: 3230 nM; GI50 [10]: 145 nM; TGI [10]: 1130 nM; GI50 [11]: 1100 nM; TGI [11]: 2300 nM; GI50 [12]: 1140 nM; TGI [12]: 2370 nM; GI50 [13]: 617 nM; TGI [13]: 2430 nM; GI50 [14]: 1560 nM; TGI [14]: 3110 nM; GI50 [15]: 571 nM; TGI [15]: 1920 nM; GI50 [16]: 1380 nM; TGI [16]: 2690 nM; GI50 [17]: 462 nM; TGI [17]: 2060 nM; GI50 [18]: 1080 nM; TGI [18]: 2320 nM; GI50 [19]: 801 nM; TGI [19]: 2150 nM; GI50 [20]: 274 nM; TGI [20]: 1590 nM; GI50 [21]: 1130 nM; TGI [21]: 2430 nM; GI50 [22]: 502 nM; TGI [22]: 1980 nM; GI50 [23]: 12.6 nM; TGI [23]: 153 nM; GI50 [24]: 1020 nM; TGI [24]: 2300 nM; GI50 [25]: 623 nM; TGI [25]: 2820 nM; GI50 [26]: 9300 nM; TGI [26]: 21500 nM; GI50 [27]: 1510 nM; TGI [27]: 2910 nM; GI50 [28]: 1440 nM; TGI [28]: 2810 nM; GI50 [29]: 305 nM; TGI [29]: 1810 nM; GI50 [30]: 1250 nM; TGI [30]: 2980 nM; GI50 [31]: 1310 nM; TGI [31]: 4000 nM; GI50 [32]: 714 nM; TGI [32]: 2030 nM; GI50 [33]: 1280 nM; TGI [33]: 2570 nM; GI50 [34]: 1410 nM; TGI [34]: 2770 nM; GI50 [35]: 225 nM; TGI [35]: 1770 nM; GI50 [36]: 761 nM; TGI [36]: 2060 nM; GI50 [37]: 1390 nM; TGI [37]: 2750 nM; GI50 [38]: 848 nM; TGI [38]: 2110 nM; GI50 [39]: 438 nM; TGI [39]: 1840 nM; GI50 [40]: 236 nM; TGI [40]: 1980 nM; GI50 [41]: 1310 nM; TGI [41]: 2700 nM; GI50 [42]: 473 nM; TGI [42]: 1830 nM; GI50 [43]: 631 nM; TGI [43]: 2290 nM; GI50 [44]: 1290 nM; TGI [44]: 2590 nM; GI50 [45]: 1410 nM; TGI [45]: 2780 nM; GI50 [46]: 1420 nM; TGI [46]: 2920 nM; GI50 [47]: 1210 nM; TGI [47]: 2510 nM; GI50 [48]: 1270 nM; TGI [48]: 2980 nM; GI50 [49]: 1230 nM; TGI [49]: 2490 nM; GI50 [50]: 227 nM; TGI [50]: 1350 nM; GI50 [51]: 1230 nM; TGI [51]: 2610 nM; GI50 [52]: 1650 nM; TGI [52]: 3060 nM; GI50 [53]: 1140 nM; TGI [53]: 2410 nM; GI50 [54]: 1030 nM; TGI [54]: 2320 nM
